The TGI is the concentration giving total growth inhibition. The low end stands for more potent growth arrest, the high end for less potent growth arrest.

The values that follow come from PubChem BioAssay (NCI).

Holding throughout (experiment): DTP human tumour cell line panel, 48 h
In assay [1] the test system is NCI/ADR-RES ovarian.
Assay [2] concerns SK-OV-3 ovarian.
Assay [3] concerns 786-0 renal.
Assay [4] deals with U251 CNS.
The subject of assay [5] is SF-539 CNS.
The test system of assay [6] is HCC-2998 colon.
The test system of assay [7] is UO-31 renal.
The test system of assay [8] is MCF7 breast.
For assay [9], the system named is SK-MEL-2 melanoma.
In assay [10] the test system is CAKI-1 renal.

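Each compound was tested at five concentrations against cells in 96-well plates for 48 hours. TGI: concentration producing complete growth inhibition.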 A value given as a limit tells only on which side of the number the result lay.

For `C=C1CCCCCCCCCCC1S(=O)c1ccccc1` (stereo not given), the TGI was > 100 µM in assay [1]; 96.4 µM in assay [2]; 38.2 µM in [3]; 53.2 µM in assay [4]; 37.2 µM in assay [5]; > 100 µM in assay [6]. In addition, the TGI in [7] was 39.6 µM; in [8] it was 65.5 µM; in assay [9] it was > 100 µM; in assay [10], > 100 µM.
With `COc1cc2[nH]c(-c3ccccc3)cc(=O)c2cc1OC`, the TGI is > 100 µM in assay [1]; > 100 µM in [2]; > 100 µM in [3]; > 100 µM in assay [4]; 60.5 µM in [5]; > 87.4 µM in [6]. Also, the TGI in assay [7] is > 100 µM; in [8] it was > 28.8 µM; in assay [9], > 100 µM; in assay [10], > 100 µM.
Consider `COc1ccc2c(c1)CC[C@@H]1[C@@H]2CC[C@]2(C)/C(=N/OCCN3CCCCC3)CC[C@@H]12`, for which the TGI in assay [1] was found to be 24.2 µM; in assay [2] it was 23.7 µM; in assay [3], 3.41 µM; in [4] it was 24.3 µM; in assay [5] it was 7.64 µM; in assay [6], 8.26 µM. For the same compound, the TGI worked out at 10.7 µM in assay [7], 21.8 µM in assay [8], 18.7 µM in assay [9] and 4.17 µM in [10].
As for `O=C1CSC2(CCN(CCCN3c4ccccc4Sc4ccc(Cl)cc43)CC2)N1`, the TGI in [1] was found to be 20.2 µM; in [2], 21.5 µM; in [3], 23.2 µM; in assay [4], 20.6 µM; in assay [5] it was 26.4 µM; in assay [6] it was 14.4 µM. The TGI in assay [7] was determined as 19.5 µM; in [8], 18.5 µM; in [9], 31 µM; in assay [10] it was 25 µM.
`COc1ccc(-c2cn3c(n2)sc2cc(C)ccc23)cc1`: the TGI in [1] was > 100 µM; in [2] it was 98.9 µM; in assay [3], 59.8 µM; in assay [4] it was 21.8 µM; in [5], 33.7 µM; in assay [6] it was 69.6 µM. The TGI in assay [7] is > 100 µM; in assay [8], 95.7 µM; in [9] it was 37.1 µM; in [10], > 100 µM.
As for `COc1cc(C2c3cc4c(cc3OC(N3CCOCC3)C2C)OCO4)cc(OC)c1O` (stereo not given), the TGI is 18.4 µM in assay [1]; > 50.6 µM in [2]; > 50.4 µM in assay [3]; > 53.6 µM in assay [4]; 22 µM in assay [5]; > 57.8 µM in assay [6]. For the same compound, the TGI is > 66.4 µM in [7], > 100 µM in [8], 46.3 µM in [9] and 26.1 µM in assay [10].
In the case of `C=C(Br)CN(C#N)CC(=C)Br`, the TGI in assay [1], in assay [2], in assay [3], in [4], in assay [5] and in assay [6] was > 100 µM in each case. For the same compound, the TGI in [7], in assay [8], in [9] and in [10] was > 100 µM each time.
For `NC1CCC(c2cc3ccccc3s2)(N2CCCCC2)CC1` (stereo not given), the TGI in assay [1] came out at 2.42 µM; in assay [2], 22.6 µM; in [3], 2.83 µM; in [4], 3.05 µM; in assay [5], 4.59 µM; in assay [6], 2.21 µM. In addition, the TGI is 5.94 µM in [7], 3.05 µM in assay [8], 2.95 µM in [9] and 10.1 µM in assay [10].
In the case of `O=C1CC(c2cccc(Cl)c2)n2cccc21` (stereo not given), the TGI in assay [1], in assay [2], in assay [3], in assay [4], in [5] and in assay [6] was > 100 µM each time. The TGI in assay [7], in assay [8], in assay [9] and in assay [10] was > 100 µM in each case.
With `COC(=O)c1c(O)ccc2c1c1c(n2C)C(=O)c2ccccc2C1=O`, the TGI is > 100 µM in assay [1]; 21.5 µM in [2]; 57 µM in assay [3]; 67.5 µM in assay [4]; 65.1 µM in assay [5]; 49.3 µM in assay [6]. Moreover, the TGI in assay [7] is > 100 µM; in assay [8], > 100 µM; in [9], > 100 µM; in assay [10] it was 92.5 µM.
As to `COC(=O)/C=C1/OC(c2ccccc2)=C(Cl)C1=O`, the TGI in assay [1] is 61.9 µM; in assay [2], > 100 µM; in assay [3], 33.7 µM; in assay [4], 27.1 µM; in [5], 47.1 µM; in assay [6] it was 38.9 µM. The TGI in [7] came out at 49.2 µM; in assay [8] it was 37.5 µM; in assay [9], 45.8 µM; in assay [10] it was 32.7 µM.
Take `COc1ccc(CN=CN/C(C#N)=C(\N)C#N)cc1OC`: the TGI in [1], in [2], in assay [3], in assay [4], in assay [5] and in [6] was > 100 µM each time. The TGI in [7], in assay [8], in assay [9] and in assay [10] was > 100 µM throughout.
As to `COc1cccc(-c2cc(=O)c3cc(C)cnc3[nH]2)c1`, the TGI is > 100 µM in assay [1]; > 100 µM in [2]; > 25.3 µM in [3]; > 100 µM in assay [4]; > 100 µM in assay [5]; 2.67 µM in assay [6]. Also, the TGI in assay [7] was 3.59 µM; in assay [8] it was > 100 µM; in assay [9] it was 7.45 µM; in assay [10], > 100 µM.
`CC(NC(=O)c1ccc(OP(=O)(OCC2=CC(=O)c3ccccc3C2=O)N(C)CCCCCl)cc1)c1ccc(OCC2CCCCC2)c(C(N)=O)c1` (stereo not given): the TGI was 32.5 µM in assay [1]; 48.8 µM in assay [2]; 28.6 µM in assay [3]; 22.3 µM in [4]; 28.5 µM in assay [5]; 4.05 µM in assay [6]. Further, the TGI in [7] came to 21.9 µM; in assay [8], 24.9 µM; in assay [9], 30.2 µM; in assay [10] it was 35.5 µM.
